Read-outs that look alike come from different tables or passages of the source.
Experiments:
[1] = target: T1, human full-length glucocorticoid receptor (Homo sapiens, UniProt P04150); experiment: GR binding Assay II (fluorescence polarization competitor assay); conditions: given where AP-1 EC50 is greater than 1 uM and/or maximal inhibition is less than 20%; read-out: GR (Ki, nM) (measured in GR binding Assay II)
T1 construct: recombinantly expressed human full-length glucocorticoid receptor; purchased PanVera Co., Madison, Wis; P2816
T1 sequence (P04150 1-777): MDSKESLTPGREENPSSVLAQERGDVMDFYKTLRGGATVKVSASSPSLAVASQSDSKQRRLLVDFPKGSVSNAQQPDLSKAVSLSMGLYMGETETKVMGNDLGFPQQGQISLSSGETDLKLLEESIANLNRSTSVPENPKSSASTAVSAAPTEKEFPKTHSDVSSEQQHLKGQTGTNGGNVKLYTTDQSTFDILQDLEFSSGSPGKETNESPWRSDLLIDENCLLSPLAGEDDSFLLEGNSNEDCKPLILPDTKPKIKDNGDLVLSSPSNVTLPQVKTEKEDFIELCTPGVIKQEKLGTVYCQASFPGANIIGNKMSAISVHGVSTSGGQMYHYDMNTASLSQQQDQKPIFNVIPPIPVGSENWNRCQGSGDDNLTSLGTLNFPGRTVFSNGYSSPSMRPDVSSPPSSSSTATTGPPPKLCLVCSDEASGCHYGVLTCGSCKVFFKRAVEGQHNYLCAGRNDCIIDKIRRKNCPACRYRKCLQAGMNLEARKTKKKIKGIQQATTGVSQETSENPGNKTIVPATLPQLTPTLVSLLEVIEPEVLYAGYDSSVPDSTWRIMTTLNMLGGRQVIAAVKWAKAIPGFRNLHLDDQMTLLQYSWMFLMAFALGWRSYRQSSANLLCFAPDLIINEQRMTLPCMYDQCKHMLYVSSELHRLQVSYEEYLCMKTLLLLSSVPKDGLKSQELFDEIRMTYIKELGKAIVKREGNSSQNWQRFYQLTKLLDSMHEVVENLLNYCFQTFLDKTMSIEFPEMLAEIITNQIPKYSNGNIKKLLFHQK
Procedure: Glucocorticoid Receptor Binding Assay (II)
In order to measure the binding of compounds on the glucocorticoid receptor a commercially available kit was used (Glucocorticoid receptor competitor assay kit, PanVera Co., Madison, Wis., P2816). Briefly, a cell lysate containing recombinantly expressed human full-length glucocorticoid receptor was mixed with a fluorescently labeled glucocorticoid (1 nM Fluormone GS1) in the presence or absence of test compound. After one hour at room temperature, the fluorescence polarization (FP) of the samples were measured. The FP of a mixture of receptor, fluorescent probe (i.e. Fluormone GS1) and 1 mM dexamethasone represented background fluorescence or 100% inhibition, whereas, the FP of the mixture without dexamethasone was taken to be 100% binding. The percentage inhibition of test molecules were then compared to the sample with 1 mM dexamethasone and expressed as % relative binding activity with dexamethasone being 100% and no inhibition is 0%. Test molecules were analyzed in the concentration range from 2.4 nM to 40 microMolar.

AP-1 = experiment: Cellular transrepression assay (AP-1 luciferase reporter in A549 cells, PMA activated); assay type: cell-based; conditions: 10 ng/ml PMA; for EC50: read-out: AP-1 (EC50, nM) (measured in cellular transrepression assay); for Emax: read-out: AP-1 Max % inhibition (measured in cellular transrepression assay)
Procedure: Cellular Transrepressional Assay
To measure the ability of test molecules to inhibit AP-1 induced transcriptional activity we utilized an A549 cell which was stably transfected with a plasmid containing 7×AP-1 DNA binding sites (pAP-1-Luc plasmid, Stratagene Co. La Jolla, Calif.) followed by the gene for luciferase. Cells were activated with 10 ng/ml of phorbol myristic acid (PMA) plus or minus test molecules for 7 hours. After 7 hours a luciferase reagent was added to measure luciferase enzymatic activity in the cell. After a 10 minute incubation of luciferase reagent with cells, luminescence was measured in a TopCount luminescence counter. Repression of AP-1 activity was calculated as the percentage decrease in the signal induced by PMA alone. Test molecules were analyzed in the concentration range from 0.1 nM to 40 μM. EC50s were determined by using standard curve fitting methods such as Excel fit (Microsoft Co.). An EC50 is the test molecule concentration at which there is a 50% repression of the maximal inhibition of transcription, i.e. a 50% reduction of AP-1 activity.

## Cc1ccc2c(n1)Oc1nc(-c3ccc(CN4CCCC4)cc3)ccc1[C@H]2C(C)(C)C(=O)Nc1nncs1 [Example 80]
[1]
  Ki: 1150 nM

## Cc1ccc2c(n1)Oc1nc(-c3ccc(OC(C)C)nc3)ccc1[C@H]2C(C)(C)C(=O)Nc1nncs1 [Example 74]
[1]
  Ki: 27.6 nM

## Cc1ccc2c(n1)Oc1nc(-c3ccc(OC(C)(C)C)cc3)ccc1[C@H]2C(C)(C)C(=O)Nc1nncs1 [Example 79]
[1]
  Ki: 40.5 nM

## CC(C)(C(=O)Nc1nnc(C(=O)NC2CC2)s1)C1c2cccnc2Oc2nc(-c3ccc(C(=O)N4CCOCC4)cc3)ccc21 (stereo not shown) [Example 6]
[1]
  Ki: 59 nM

## CN(C)C(=O)c1ccc(-c2ccc3c(n2)Oc2nc(-c4ccccc4)ccc2C3C(C)(C)C(=O)Nc2nncs2)cc1 (stereo not shown) [Example 65, 4-(5-(1,1-dimethyl-2-oxo-2-(1,3,4-thiadiazol-2-ylamino)ethyl)-8-phenyl-5H-pyrido[3′,2′:5,6]pyrano[2,3-b]pyridin-2-yl)-N,N-dimethylbenzamide]
[1]
  Ki: 657 nM

## Cc1ccc2c(n1)Oc1nc(-c3ccc(CC(C)C)cc3)ccc1[C@H]2C(C)(C)C(=O)Nc1nncs1 [Example 77]
[1]
  Ki: 2.53 nM

## CN(C)C(=O)c1ccc(-c2ccc3c(n2)Oc2nc(N4CCOCC4)ccc2C3C(C)(C)C(=O)Nc2nncs2)cc1 (stereo not shown) [Example 69, 4-(5-(1,1-dimethyl-2-oxo-2-(1,3,4-thiadiazol-2-ylamino)ethyl)-8-(4-morpholinyl)-5H-pyrido[3′,2′:5,6]pyrano[2,3-b]pyridin-2-yl)-N,N-dimethylbenzamide]
[1]
  Ki: 68.9 nM

## Cc1ccc2c(n1)Oc1nc(-c3ccc(C(=O)N4CCC(F)(F)C4)c(F)c3)ccc1[C@H]2C(C)(C)C(=O)Nc1nncs1 [Example 39]
[1]
  Ki: 38.2 nM

## Cc1ccc2c(n1)Oc1nc(-c3ccc(S(=O)(=O)N(C)C)cc3)ccc1[C@H]2C(C)(C)C(=O)Nc1nncs1 [Example 25]
[1]
  Ki: 172 nM

## Cc1ccc2c(n1)Oc1nc(-c3ccc(S(=O)(=O)C(C)C)cc3)ccc1[C@H]2C(C)(C)C(=O)Nc1nncs1 [Example 83]
[1]
  Ki: 25.2 nM

## CSc1ccc(-c2ccc3c(n2)Oc2nc(C)ccc2[C@@H]3C(C)(C)C(=O)Nc2nncs2)cc1 [Example 29]
[1]
  Ki: 18.9 nM

## Cc1ccc2c(n1)Oc1nc(-c3ccc(S(C)(=O)=O)cc3)ccc1[C@H]2C(C)(C)C(=O)Nc1nncs1 [Example 37, 2-methyl-2-((5S)-2-methyl-8-(4-(methylsulfonyl)phenyl)-5H-pyrido[3′,2′:5,6]pyrano[2,3-b]pyridin-5-yl)-N-1,3,4-thiadiazol-2-ylpropanamide]
[1]
  Ki: 78.9 nM

## Cc1ccc2c(n1)Oc1nc(-c3ccc(C(=O)N4CCC[C@@H]4C(N)=O)cc3)ccc1[C@H]2C(C)(C)C(=O)Nc1nnc(C)s1 [Example 91]
[1]
  Ki: 122 nM

## Cc1ccc2c(n1)Oc1nc(-c3ccc(C(=O)N4CCC[C@@H]4C(N)=O)cc3)ccc1[C@H]2C(C)(C)C(=O)Nc1nncs1 [Example 90]
[1]
  Ki: 103 nM

## Cc1ccc2c(n1)Oc1nc(Cl)ccc1C2C(C)(C)C(=O)Nc1nncs1 (stereo not shown) [Example 19]
[1]
  Ki: 269 nM

## CCSc1ccc(-c2ccc3c(n2)Oc2nc(C)ccc2[C@@H]3C(C)(C)C(=O)Nc2nncs2)cc1 [Example 78]
[1]
  Ki: 2.15 nM

## CNC(=O)c1cnc(NC(=O)C(C)(C)[C@H]2c3ccc(C)nc3Oc3nc(-c4ccc(C(=O)N(C)C)cc4)ccc32)s1 [Example 51]
[1]
  Ki: 423 nM

## Cc1ccc2c(n1)Oc1nc(-c3ccc(C(=O)N(C)C)cc3)ccc1[C@H]2C(C)(C)C(=O)Nc1nnc(C(=O)NC2CC2)s1 [Example 43]
[1]
  Ki: 11.6 nM

## Cc1ccc2c(n1)Oc1nc(-c3ccc(OC4CCCC4)cc3)ccc1[C@H]2C(C)(C)C(=O)Nc1nncs1 [Example 75]
[1]
  Ki: 13.5 nM

## CNC(=O)c1nnc(NC(=O)C(C)(C)[C@H]2c3ccc(C)nc3Oc3nc(-c4ccc(C(=O)N(C)C)cc4)ccc32)s1 [Example 45]
[1]
  Ki: 134 nM

## CCN(C)C(=O)c1ccc(-c2ccc3c(n2)Oc2nc(C)ccc2[C@@H]3C(C)(C)C(=O)Nc2nnc(C(=O)N(C)C)s2)cc1 [Example 47]
[1]
  Ki: 149 nM

## Cc1ccc2c(n1)Oc1nc(-c3ccc(C(=O)N(C)C)cc3)ccc1[C@H]2C(C)(C)C(=O)Nc1ncc(C(=O)NC2CC2)s1 [Example 53]
[1]
  Ki: 106 nM

## C=Cc1ccc2c(n1)Oc1nc(-c3ccc(C(=O)N(C)C)cc3)ccc1C2C(C)(C)C(=O)Nc1nncs1 (stereo not shown) [Example 64, 4-(5-(1,1-dimethyl-2-oxo-2-(1,3,4-thiadiazol-2-ylamino)ethyl)-8-vinyl-5H-pyrido[3′,2′:5,6]pyrano[2,3-b]pyridin-2-yl)-N,N-dimethylbenzamide]
[1]
  Ki: 80.8 nM

## Cc1ccc2c(n1)Oc1nc(-c3ccc(C(=O)N4CCOCC4)cc3)ccc1[C@H]2C(C)(C)C(=O)Nc1nnn(C)n1 [Example 92, 2-methyl-2-((5S)-2-methyl-8-(4-(4-morpholinylcarbonyl)phenyl)-5H-pyrido[3′,2′:5,6]pyrano[2,3-b]pyridin-5-yl)-N-(2-methyl-2H-tetrazol-5-yl)propanamide]
[1]
  Ki: 153 nM

## CCN(C)C(=O)c1ccc(-c2ccc3c(n2)Oc2nc(C)ccc2[C@@H]3C(C)(C)C(=O)Nc2nnc(C(=O)NCCO)s2)cc1 [Example 85]
[1]
  Ki: 67.2 nM

## Cc1ccc2c(n1)Oc1nc(-c3ccc(Oc4ccccc4)cc3)ccc1[C@H]2C(C)(C)C(=O)Nc1nncs1 [Example 23]
[1]
  Ki: 4.59 nM

## CN(C)C(=O)c1ccc(-c2ccc3c(n2)Oc2nc(N4CCCC4)ccc2C3C(C)(C)C(=O)Nc2nncs2)cc1 (stereo not shown) [Example 70, 4-(5-(1,1-dimethyl-2-oxo-2-(1,3,4-thiadiazol-2-ylamino)ethyl)-8-(1-pyrrolidinyl)-5H-pyrido[3′,2′:5,6]pyrano[2,3-b]pyridin-2-yl)-N,N-dimethylbenzamide]
[1]
  Ki: 385 nM

## CCN(C)C(=O)c1ccc(-c2ccc3c(n2)Oc2c(ccc[n+]2[O-])C3C(C)(C)C(=O)Nc2nncs2)cc1 (stereo not shown) [Example 84, 4-(5-(1,1-dimethyl-2-oxo-2-(1,3,4-thiadiazol-2-ylamino)ethyl)-9-oxido-5H-pyrido[3′,2′:5,6]pyrano[2,3-b]pyridin-2-yl)-N-ethyl-N-methylbenzamide]
[1]
  Ki: 1150 nM

## Cc1ccc2c(n1)Oc1nc(-c3ccc(C(=O)N(C)C)cc3)ccc1[C@H]2C(C)(C)C(=O)Nc1ncc(C(=O)N2CCOCC2)s1 [Example 52]
[1]
  Ki: 411 nM

## Cc1ccc2c(n1)Oc1nc(-c3ccc(OC(F)(F)F)cc3)ccc1[C@H]2C(C)(C)C(=O)Nc1nncs1 [Example 24]
[1]
  Ki: 2.66 nM

## CCN(C)C(=O)c1ccc(-c2ccc3c(n2)Oc2ncccc2C3C(C)(C)C(=O)Nc2nnc(C(=O)NC3CC3)s2)cc1 (stereo not shown) [Example 7]
[1]
  Ki: 65.6 nM

## Cc1ccc2c(n1)Oc1nc(-c3ccc(C(=O)NC(C)(C)C)cc3)ccc1[C@H]2C(C)(C)C(=O)Nc1nncs1 [Example 26]
[1]
  Ki: 591 nM

## CCN(C)C(=O)c1ccc(-c2ccc3c(n2)Oc2nc(C)ccc2[C@@H]3C(C)(C)C(=O)Nc2ncc(C)s2)cc1 [Example 33]
AP-1; 7 h
  EC50: 449 nM
  Emax: 50.8%

## Cc1nnc(NC(=O)C(C)(C)C2c3ccc(Cl)nc3Oc3nc(-c4ccc(C(=O)N5CCOCC5)cc4)ccc32)s1 (stereo not shown) [Example 63]
AP-1; 7 hours
  AP-1 Max % inhibition (measured in cellular transrepression assay): 54.57%
  EC50: 87 nM

## CCN(C)C(=O)c1ccc(-c2ccc3c(n2)Oc2nc(Cl)ccc2C3C(C)(C)C(=O)Nc2nncs2)cc1 (stereo not shown) [Example 59]
AP-1; 7 h
  EC50: 15.8 nM
  Emax: 62.3%

## CC(=O)c1ccc(-c2ccc3c(n2)Oc2nc(C)ccc2C3C(C)(C)C(=O)Nc2nncs2)cc1 (stereo not shown) [Example 17]
AP-1; 7 h
  EC50: 72.8 nM
  Emax: 42.4%

— patent publication US8304539B2, “Fused heteroaryl modulators of glucocorticoid receptor, AP-1, and/or NF-κB activity and use thereof” (Bristol-Myers Squibb Company, priority 2008, dated 2012)
